Experiments:
[1] = Peroxide neutralization rate profile in Clear Care® lens case with platinum element; format: physicochemical
Source text: All of the peroxide neutralization data described herein was obtained with a hydrogen peroxide lens case provided in a contact lens care product package sold as Clear Care® by CibaVision. The Clear Care® product packages with the included lens case were purchased in the United States in 2009-10. Each of the hydrogen peroxide neutralization profiles and rate constants (as well as calculated the half-lives) stated herein and in the claims were obtained with a Clear Care® lens case.
The line plots shown in FIG. 5B is determined from the peroxide neutralization data of FIG. 5A over the initial 60 minutes, i.e. at time of 0, 5 min, 15 min, 30 min and 60 min. […] The pseudo first-order rate constant is determined from the slope of the line plots.
The peroxide neutralization rate profiles of select disinfecting solutions were determined as follows. […] Aliquots of the solution are removed at the stated time points and the concentration of hydrogen peroxide is determined by known analytical methods.
The aliquots of solution are titrated with 0.1N potassium permanganate in the presence of an acidic aqueous solution. […] The sample is placed in the system and analyzed using a built-in hydrogen peroxide determination method. […] Once an endpoint is determined the instrument calculates the hydrogen peroxide concentration of the sample. […]

[2] = Osmolality after peroxide neutralization; format: physicochemical; details: disinfecting solution with 3 wt. % urea hydrogen peroxide

Row | Structure (SMILES) | effect on the rate of peroxide neutralization ([1]; 0.1 wt. % or 1000 ppm) | effect on the rate of peroxide neutralization ([1]; 100 ppm) | osmolality of the solution following neutralization of the peroxide [2]
1 | NCCS(=O)(=O)O [taurine] | much greater reduction in the rate of peroxide neutralization | very small effect on the rate of peroxide neutralization | –
2 | NC(N)=O.OO [urea hydrogen peroxide] | – | – | about 600 mOsmol/kg
